In patent US20240158446A1, “CYCLIC COMPOUND HAVING SELECTIVE INHIBITORY ACTION ON KRAS OVER HRAS AND NRAS” (CHUGAI SEIYAKU KABUSHIKI KAISHA, priority 2021, published 2024):
Read-outs that look alike come from different tables or passages of the source. Where a SMILES comes first, the peptide text is derived from it. Bridges are numbered along the chain shown (N, C = ends). [ ]: non-standard residue; d: D form. The star is where a group is joined. hPhe(3-Cl-4-CF3) = N[C@@H](CCc1ccc(C(F)(F)F)c(Cl)c1)C(=O)O; NPrPhe(4-CF3) = CCCN[C@@H](Cc1ccc(C(F)(F)F)cc1)C(=O)O; NMePhe(4-Me) = CN[C@@H](Cc1ccc(C)cc1)C(=O)O; NMeGly(cPent) = CN[C@H](C(=O)O)C1CCCC1; Hyp = O=C(O)[C@@H]1C[C@@H](O)CN1; Piperidide(4-Me) = CC1CCN(*)CC1; NMeD = CN[C@@H](CC(=O)O)C(=O)O; NMeL = CN[C@@H](CC(C)C)C(=O)O; Morpholide = C1CN(*)CCO1; NMeA = CN[C@@H](C)C(=O)O; Ac5c = NC1(C(=O)O)CCCC1; Aze = O=C(O)[C@@H]1CCN1; NEtG = CCNCC(=O)O; Sar = CNCC(=O)O

Columns and labels:
[1] = target: GDP-bound KRAS wild-type protein (Homo sapiens, UniProt P01116); assay: Binding to KRAS by surface plasmon resonance (SPR), Single Cycle Kinetics; conditions: GDP-bound KRAS wild-type protein, read-out: KRAS KD
Sequence of GDP-bound KRAS wild-type protein (P01116 whole entry): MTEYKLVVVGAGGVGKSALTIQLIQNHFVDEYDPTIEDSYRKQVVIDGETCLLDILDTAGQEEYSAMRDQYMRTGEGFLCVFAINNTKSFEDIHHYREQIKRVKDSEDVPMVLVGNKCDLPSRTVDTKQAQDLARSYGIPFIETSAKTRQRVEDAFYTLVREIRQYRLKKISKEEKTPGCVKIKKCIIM

[2] = target: GDP-bound NRAS wild-type protein (Homo sapiens, UniProt P01111); assay: Binding to NRAS by surface plasmon resonance (SPR), Single Cycle Kinetics
Sequence of GDP-bound NRAS wild-type protein (P01111 whole entry): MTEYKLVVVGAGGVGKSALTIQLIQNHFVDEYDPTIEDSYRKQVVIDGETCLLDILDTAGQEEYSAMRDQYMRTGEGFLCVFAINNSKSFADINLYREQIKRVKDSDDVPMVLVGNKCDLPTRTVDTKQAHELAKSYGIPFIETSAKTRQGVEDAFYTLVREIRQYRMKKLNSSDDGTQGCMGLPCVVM

[3] = target: GDP-bound HRAS wild-type protein (Homo sapiens, UniProt P01112); assay: Binding to HRAS by surface plasmon resonance (SPR), Single Cycle Kinetics
Sequence of GDP-bound HRAS wild-type protein (P01112 whole entry): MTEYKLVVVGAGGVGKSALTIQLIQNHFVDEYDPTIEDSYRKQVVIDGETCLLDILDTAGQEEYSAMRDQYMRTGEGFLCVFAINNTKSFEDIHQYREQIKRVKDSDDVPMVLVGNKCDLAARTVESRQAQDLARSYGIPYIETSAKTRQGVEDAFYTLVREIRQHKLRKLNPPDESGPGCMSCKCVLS

[4] = SPR Single Cycle Kinetics, 1:1 binding model
[5] = SPR, GDP-bound NRAS wild-type protein vs GDP-bound KRAS wild-type protein
[6] = SPR, GDP-bound HRAS wild-type protein vs GDP-bound KRAS wild-type protein

Structure (SMILES) | Kd [1, 4] [nM] | NRAS/KRAS (ratio of KD value for NRAS to KD value for KRAS) [2, 5] | HRAS/KRAS (ratio of KD value for HRAS to KD value for KRAS) [3, 6] | other results
CC[C@H](C)[C@@H]1NC(=O)[C@H](CC(C)C)N(C)C(=O)C[C@@H](C(=O)N2CCOCC2)N(C)C(=O)[C@H](C2CCCC2)N(C)C(=O)C2(CCCC2)NC(=O)[C@@H]2CCCN2C(=O)[C@H](CCc2ccc(C(F)(F)F)c(Cl)c2)NC(=O)CN(CC)C(=O)[C@H](Cc2ccc(C)cc2)N(C)C(=O)CN(CC)C(=O)CN(C)C1=O [PP0029] ([NMeL]I[Sar][NEtG][NMePhe(4-Me)][NEtG][hPhe(3-Cl-4-CF3)]P[Ac5c][NMeGly(cPent)][NMeD]-Morpholide; lactam N-11) | 7 | C (A compound having a KD ratio of 0.1 or more and less than 3 is denoted as C) | C (A compound having a KD ratio of 0.1 or more and less than 3 is denoted as C) | 
CCO[C@@H]1C[C@H]2C(=O)NC3(CCC3)C(=O)N(C)[C@@H](C3CCCC3)C(=O)N(C)[C@H](C(=O)N3CCOCC3)CC(=O)N(C)[C@@H](CC(C)C)C(=O)N[C@@H]([C@@H](C)CC)C(=O)N3CC[C@H]3C(=O)N(C)[C@H]3CC(C)=CCN(C3=O)[C@@H](Cc3ccc(C(F)(F)F)cc3)C(=O)N(C)CC(=O)N[C@@H](CCc3cc(F)c(C(F)(F)F)c(F)c3)C(=O)N2C1 [PP1040] |  | C (A compound having a KD ratio of 0.1 or more and less than 3 is denoted as C) | C (A compound having a KD ratio of 0.1 or more and less than 3 is denoted as C) | Kd ([1]; SPR, Single Cycle Kinetics): 1.2 nM
CCCN1C(=O)[C@@H]2CCN2C(=O)[C@H](C)N(C)C(=O)[C@H]([C@@H](C)CC)NC(=O)[C@H](CC(C)C)N(C)C(=O)C[C@@H](C(=O)N2CCC(C)CC2)N(C)C(=O)[C@H](C2CCCC2)N(C)C(=O)C2(CCCC2)NC(=O)[C@@H]2CCCN2C(=O)[C@H](CCc2ccc(C(F)(F)F)c(Cl)c2)NC(=O)CN(C)C(=O)[C@@H]1Cc1ccc(C(F)(F)F)cc1 [PP0185] ([NMeL]I[NMeA][Aze][NPrPhe(4-CF3)][Sar][hPhe(3-Cl-4-CF3)]P[Ac5c][NMeGly(cPent)][NMeD]-{Piperidide(4-Me)}; lactam N-11) | 1.1 | C (A compound having a KD ratio of 0.1 or more and less than 3 is denoted as C) | B (a compound having 3 or more and less than 10 is denoted as B) | 
CCCN1C(=O)CN(C)C(=O)CN(CC)C(=O)[C@H]([C@@H](C)CC)NC(=O)[C@H](CC(C)C)N(C)C(=O)C[C@@H](C(=O)N2CCOCC2)N(C)C(=O)[C@H](C2CCCC2)N(C)C(=O)C2(CCCC2)NC(=O)[C@@H]2C[C@@H](OC)CN2C(=O)[C@H](CCc2ccc(C(F)(F)F)c(Cl)c2)NC(=O)CN(C)C(=O)[C@@H]1Cc1ccc(C(F)(F)F)cc1 [PP0296] ([NMeL]I[NEtG][Sar][NPrPhe(4-CF3)][Sar][hPhe(3-Cl-4-CF3)][Hyp](Me)[Ac5c][NMeGly(cPent)][NMeD]-Morpholide; lactam N-11) | 0.15 | B (a compound having 3 or more and less than 10 is denoted as B) | C (A compound having a KD ratio of 0.1 or more and less than 3 is denoted as C) | 
CCO[C@@H]1C[C@H]2C(=O)NC3(CCC3)C(=O)N(C)[C@@H](C3CCCC3)C(=O)N(C)[C@H](C(=O)N(CC)CC)CC(=O)N(C)[C@@H](CC(C)C)C(=O)N[C@@H]([C@@H](C)CC)C(=O)N(C)CC(=O)N(C)[C@H]3C/C=C\CCN(C3=O)[C@@H](Cc3ccc(C(F)(F)F)cc3)C(=O)N(C)CC(=O)N[C@@H](CCc3cc(F)c(C(F)(F)F)c(F)c3)C(=O)N2C1 [PP1306] |  |  |  | Kd ([1]; SPR, Single Cycle Kinetics, 1:1 binding model): 0.2 nM; NRAS/KRAS (ratio of KD value for NRAS to KD value for KRAS) ([2]; SPR, GDP-bound NRAS wild-type protein vs GDP-bound KRAS wild-type protein, KD ratio class): AA (a compound having 20 or more is denoted as AA); HRAS/KRAS (ratio of KD value for HRAS to KD value for KRAS) ([3]; SPR, GDP-bound HRAS wild-type protein vs GDP-bound KRAS wild-type protein, KD ratio class): A (a compound having 10 or more and less than 20 is denoted as A)
CC[C@H](C)[C@@H]1NC(=O)[C@H](COC)N(C)C(=O)C[C@@H](C(=O)N2CCOCC2)N(C)C(=O)[C@H](C2CCCC2)N(C)C(=O)C2(CCC2)NC(=O)[C@@H]2C[C@@H](OC)CN2C(=O)[C@H](CCc2cc(F)c(C(F)(F)F)c(F)c2)NC(=O)CN(C)C(=O)[C@H](Cc2ccc(C(F)(F)F)cc2)N2CCCCC[C@@H](C2=O)N(C)C(=O)CN(C)C1=O [PP0837] |  | B (a compound having 3 or more and less than 10 is denoted as B) | B (a compound having 3 or more and less than 10 is denoted as B) | Kd ([1]; SPR, Single Cycle Kinetics): 0.19 nM
CCC[C@H]1C(=O)N[C@@H]([C@@H](C)CC)C(=O)N(C)CC(=O)N(C)[C@H]2C/C=C\CCN(C2=O)[C@@H](Cc2ccc(C)cc2)C(=O)N(C)CC(=O)N[C@@H](CCc2ccc(Cl)c(OC)c2)C(=O)N2C[C@H](OCC)C[C@H]2C(=O)NC2(CC(C)(C)C2)C(=O)N(C)[C@@H](C2CCCC2)C(=O)N(C)[C@H](C(=O)N(C)C)CC(=O)N1C [PP2790] | 0.54 |  |  | NRAS/KRAS (ratio of KD value with respect to GDP-bound NRAS wild-type protein to KD value with respect to KRAS) ([2]; SPR KD ratio NRAS/KRAS, class symbols): A (a compound having 10 or more and less than 20 is denoted as A); HRAS/KRAS (ratio of KD value with respect to GDP-bound HRAS wild-type protein to KD value with respect to KRAS) ([3]; SPR KD ratio HRAS/KRAS, class symbols): A (a compound having 10 or more and less than 20 is denoted as A)
CC[C@H](C)[C@@H]1NC(=O)[C@H](CC(C)C)N(C)C(=O)C[C@@H](C(=O)N2CCOCC2)N(C)C(=O)[C@H](C2CCCC2)N(C)C(=O)C2(CCCC2)NC(=O)[C@@H]2CCCN2C(=O)[C@H](CCc2cc(F)c(C(F)(F)F)c(F)c2)NC(=O)CN(C)C(=O)[C@H](Cc2ccc(C(F)(F)F)cc2)N2CCCCC[C@@H](C2=O)N(C)C(=O)CN(CC)C1=O [PP0483] | 34 |  |  | NRAS/KRAS (ratio of KD value with respect to NRAS to KD value with respect to KRAS) [2, 5]: B (a compound having 3 or more and less than 10 is denoted as B); HRAS/KRAS (ratio of KD value with respect to HRAS to KD value with respect to KRAS) [3, 6]: B (a compound having 3 or more and less than 10 is denoted as B)
CCCN1C(=O)CN(C)C(=O)CN(C)C(=O)[C@H]([C@@H](C)CC)NC(=O)[C@H](CC(C)C)N(C)C(=O)C[C@@H](C(=O)N2CCOCC2)NC(=O)[C@H](C2CCCC2)N(C)C(=O)C2(CCCC2)NC(=O)[C@@H]2CCCN2C(=O)[C@H](CCc2ccc(C(F)(F)F)c(Cl)c2)NC(=O)CN(C)C(=O)[C@@H]1Cc1ccc(C(F)(F)F)cc1 [PP0146] ([NMeL]I[Sar][Sar][NPrPhe(4-CF3)][Sar][hPhe(3-Cl-4-CF3)]P[Ac5c][NMeGly(cPent)]D-Morpholide; lactam N-11) | 0.42 | B (a compound having 3 or more and less than 10 is denoted as B) | B (a compound having 3 or more and less than 10 is denoted as B) | 
